Test results taken from patent US8344029B2, “Substituted propanamide derivative and pharmaceutical composition containing the same” (Daiichi Sankyo Company, Limited, priority 2005, dated 2013).

How the values were obtained:
[1] = tested on: immature rats (4-week old male Wistar rats); test: Evaluation of blood calcium concentration-decreasing activity in immature rats; format: in vivo; details: Rattus norvegicus; 6 hours after oral administration of 10 mg/kg, fasted 4-week old male Wistar rats, vs normal control group; read-out: serum calcium concentration-decreasing rate
Description: The blood calcium concentration in a living body is strictly controlled and constantly maintained by intestinal absorption and urinary excretion and release (bone resorption) and adhesion (bone formation) in bone tissues. […] The bone resorption-suppressing activity of compounds according to the present invention was evaluated by observing decreases in blood calcium concentration in immature rats administered with the compounds as an index of the activity.
The test was conducted using 4-week old male Wistar rats fasted for 12 to 24 hours. Each compound to be tested was suspended in 0.5% methyl cellulose (MC). The suspension was orally administered to the rats at a dose of 5 mL/kg. Rats of a normal control group were similarly administered with 0.5% MC alone. Then, blood was drawn from rat jugular vein under ether anesthesia 6 hours after the administration of each test compound or 0.5% MC. The blood was immediately centrifuged (10000 rpm/revolutions per minute, 5 minutes) at room temperature to separate serum. The calcium concentration of each serum was measured by an autoanalyzer (JEOL, JCA-BM2250). Five rats were used for each test group.
The evaluation was conducted by a comparative test with the normal control group based on the serum calcium concentration-decreasing rate (%) calculated according to the following equation: Serum calcium concentration-decreasing rate(%)=(([serum calcium concentration in normal control group]−[serum calcium concentration in test compound administration group]/[serum calcium concentration in normal control group])×100.

[2] = tested on: adjuvant arthritis model rats (8-week old female Lewis rats); test: Bone density decrease-suppressing activity in adjuvant arthritis model rats; format: in vivo, rat; details: dose 3 mg/kg, oral once a day for 7 days from day 14 after adjuvant injection; femur bone density on the 21st day
Description: In rheumatoid arthritis, not only swelling and pain caused by arthritis but also systemic bone mass decrease and articular destruction caused by a significant increase in bone resorption are observed.
The test was conducted using 8-week old female Lewis rats. Mycobacterium butyricum cells killed by heat were ground in an agate mortar, suspended in liquid paraffin sterilized by dry heat to a concentration of 2 mg/mL, and treated with ultrasonic to prepare an adjuvant. Under ether anesthesia, rats in a control group other than a normal control group and rats in test compound administration group were intradermally injected with 0.05 mL of the adjuvant each time (0.1 mL/rat in total) at two portions of the base of the tail. Starting from 14 days after the injection of the adjuvant, each rat was orally administered with 5 mL/kg of a test compound suspended in 0.5% MC once a day for 7 days. The rats of the control group were similarly administered with 0.5% MC alone. On the 21st day after the adjuvant injection, the femur was biopsied. The femur, after removing soft tissues, was sufficiently fixed, dehydrated, and dried with ethanol. The bone density of the femur was measured with a bone density analyzer (Aloka, DOS-600 EX-IIIR). Five rats were used for each group.
The evaluation was conducted by comparative tests with the normal control group and the control group based on the bone density decrease-suppressing rate (%) calculated according to the following equation: Bone density decrease-suppressing rate(%)=((1−([femur bone density in normal control group]−[femur bone density in test compound administration group]))/([femur bone density in normal control group]−[femur bone density in control group]))×100

Structure (SMILES) | inhibition in vivo at 10 mg/kg [1] | Bone density decrease-suppressing rate (%) [2]
O=C(NC(Cc1ccc(OC(F)F)cc1)C(=O)NCCO)c1ccc(OCCC2CC2)cc1 (stereo not drawn) [Example 3, 4-(2-Cyclopropylethoxy)-N-{1-[4-(difluoromethoxy)benzyl]-2-[(2-hydroxyethyl)amino]-2-oxoethyl}benzamide] | ≥ 10% | 
O=C(NC(Cc1ccc(OC(F)(F)F)cc1)C(=O)NCCO)c1ccc(OCCC2CC2)cc1 (stereo not drawn) [Example 4, 4-(2-Cyclopropylethoxy)-N-{2-[(2-hydroxyethyl)amino]-2-oxo-1-[4-(trifluoromethoxy)benzyl]ethyl}benzamide] | ≥ 10% | 
O=C(NC(Cc1ccc(C(F)(F)F)cc1)C(=O)NCCO)c1ccc(OCCC2CC2)cc1 (stereo not drawn) [Example 7, 4-(2-Cyclopropylethoxy)-N-{2-[(2-hydroxyethyl)amino]-2-oxo-1-[4-(trifluoromethyl)benzyl]ethyl}benzamide] | ≥ 10% | 
O=C(NC(Cc1ccc(OC(F)F)cc1)C(=O)NCCO)c1ccc(OCC2CC2)cc1 (stereo not drawn) [Example 18, 4-(Cyclopropylmethoxy)-N-{1-[4-(difluoromethoxy)benzyl]-2-[(2-hydroxyethyl)amino]-2-oxoethyl}benzamide] | ≥ 10% | 
O=C(NC(Cc1ccc(OC(F)(F)F)cc1)C(=O)NCCO)c1ccc(OCC2CC2)cc1 (stereo not drawn) [Example 19, 4-(Cyclopropylmethoxy)-N-{2-[(2-hydroxyethyl)amino]-2-oxo-1-[4-(trifluoromethoxy)benzyl]ethyl}benzamide] | ≥ 10% | 
O=C(NC(Cc1ccc(OC2CC2)cc1)C(=O)NCCO)c1ccc(OCC2CC2)cc1 (stereo not drawn) [Example 20, 4-(Cyclopropylmethoxy)-N-{1-[4-(cyclopropyloxy)benzyl]-2-[(2-hydroxyethyl)amino]-2-oxoethyl}benzamide] | ≥ 10% | 
O=C(NC(Cc1ccc(C(F)(F)F)cc1)C(=O)NCCO)c1ccc(OCC2CC2)cc1 (stereo not drawn) [Example 22, 4-(Cyclopropylmethoxy)-N-{2-[(2-hydroxyethyl)amino]-2-oxo-1-[4-(trifluoromethyl)benzyl]ethyl}benzamide] | ≥ 10% | 
O=C(NC(Cc1ccc(C2CC2)cc1)C(=O)NCCO)c1ccc(OCC2CC2)cc1 (stereo not drawn) [Example 23, N-{1-(4-Cyclopropylbenzyl)-2-[(2-hydroxyethyl)amino]-2-oxoethyl}-4-(cyclopropylmethoxy)benzamide] | ≥ 10% | 
O=C(NC(Cc1ccc(OC(F)(F)F)cc1)C(=O)NCCO)c1ccc(OCCCC2CC2)cc1 (stereo not drawn) [Example 25, 4-(3-Cyclopropylpropoxy)-N-{2-[(2-hydroxyethyl)amino]-2-oxo-1-[4-(trifluoromethoxy)benzyl]ethyl}benzamide] | ≥ 10% | 
O=C(NC(Cc1ccc(OC(F)(F)F)cc1)C(=O)NCCO)c1ccc(OCC(F)F)cc1 (stereo not drawn) [Example 31, 4-(2,2-Difluoroethoxy)-N-{2-[(2-hydroxyethyl)amino]-2-oxo-1-[4-(trifluoromethoxy)benzyl]ethyl}benzamide] | ≥ 10% | 
O=C(NC(Cc1ccc(OC(F)(F)F)cc1)C(=O)NCCO)c1ccc(OCCC(F)(F)F)cc1 (stereo not drawn) [Example 34, N-{2-[(2-Hydroxyethyl)amino]-2-oxo-1-[4-(trifluoromethoxy)benzyl]ethyl}-4-(3,3,3-trifluoropropoxy)benzamide] | ≥ 10% | 
O=C(NC(Cc1ccc(OC(F)(F)F)cc1)C(=O)NCCO)c1ccc(OCC2CC2(F)F)cc1 (stereo not drawn) [Example 40, 4-[(2,2-Difluorocyclopropyl)methoxy]-N-{2-[(2-hydroxyethyl)amino]-2-oxo-1-[4-(trifluoromethoxy)benzyl]ethyl}benzamide] | ≥ 10% | 
O=C(NC(Cc1ccc(OC(F)(F)F)cc1)C(=O)NCCO)c1ccc(Oc2ccc(C(F)(F)F)cc2)cc1 (stereo not drawn) [Example 42, N-{2-[(2-Hydroxyethyl)amino]-2-oxo-1-[4-(trifluoromethoxy)benzyl]ethyl}-4-[4-(trifluoromethyl)phenoxy]benzamide] | ≥ 10% | 
O=C(N[C@@H](Cc1ccc(OC(F)(F)F)cc1)C(=O)NCCO)c1ccc(OCC2CC2)cc1 [Example 51, 4-(Cyclopropylmethoxy)-N-{(1S)-2-[(2-hydroxyethyl)amino]-2-oxo-1-[4-(trifluoromethoxy)benzyl]ethyl}benzamide] |  | 85%
O=C(N[C@@H](Cc1ccc(OC(F)(F)F)cc1)C(=O)NCCO)c1ccc(OCCC(F)(F)F)cc1 [Example 57, N-{(1S)-2-[(2-Hydroxyethyl)amino]-2-oxo-1-[4-(trifluoromethoxy)benzyl]ethyl}-4-(3,3,3-trifluoropropoxy)benzamide] |  | 86%
O=C(N[C@@H](Cc1ccc(OC(F)F)cc1)C(=O)NCCO)c1ccc(OCCC(F)(F)F)cc1 [Example 59, N-{(1S)-1-[4-(Difluoromethoxy)benzyl]-2-[(2-hydroxyethyl)amino]-2-oxoethyl}-4-(3,3,3-trifluoropropoxy)benzamide] |  | 92%
O=C(N[C@@H](Cc1ccc(C(F)(F)F)cc1)C(=O)NCCO)c1ccc(OCCC(F)(F)F)cc1 [Example 61, N-{(1S)-2-[(2-Hydroxyethyl)amino]-2-oxo-1-[4-(trifluoromethyl)benzyl]ethyl}-4-(3,3,3-trifluoropropoxy)benzamide] |  | 75%
O=C(N[C@@H](Cc1ccc(OC(F)(F)F)cc1)C(=O)NCCO)c1ccc(Oc2ccc(C(F)(F)F)cc2)cc1 [Example 64, N-{(1S)-2-[(2-Hydroxyethyl)amino]-2-oxo-1-[4-(trifluoromethoxy)benzyl]ethyl}-4-[4-(trifluoromethyl)phenoxy]benzamide] |  | 77%
